# According to ChEMBL document CHEMBL3885881, “DrugMatrix”:
# Species: Rattus norvegicus
# Assay: DrugMatrix - Regimen: Daily Repeat
# Type: toxicity, organism-based, Sprague-Dawley
# Parameters: regimen Daily Repeat, gender Male, age 6-8 weeks
# Settings: in vivo, iv, vehicle 100 % SALINE; for ABSOLUTE BASOPHIL / ABSOLUTE EOSINOPHIL / ABSOLUTE LYMPHOCYTE / ABSOLUTE MONOCYTE / ABSOLUTE SEGMENTED NEUTROPHIL / BASOPHIL / EOSINOPHIL / ERYTHROCYTE COUNT / HEMATOCRIT / HEMOGLOBIN / LEUKOCYTE COUNT / LYMPHOCYTE / MEAN CORPUSCULAR HEMOGLOBIN / MEAN CORPUSCULAR HEMOGLOBIN CONCENTRATION / MEAN CORPUSCULAR VOLUME / MONOCYTE / NEUTROPHIL / NUCLEATED RED BLOOD CELLS / PLATELET COUNT: tissue Blood; for ALANINE AMINOTRANSFERASE / ALBUMIN / ALKALINE PHOSPHATASE / ASPARTATE AMINOTRANSFERASE / BLOOD UREA NITROGEN / CARBON DIOXIDE / CHLORIDE / CHOLESTEROL / CREATINE PHOSPHOKINASE / CREATININE / GLUCOSE / LACTATE DEHYDROGENASE / LIPASE / PHOSPHORUS / POTASSIUM / SODIUM / TOTAL BILIRUBIN / TOTAL PROTEIN: tissue Plasma
# [1] = 1 mg/kg, 72 h, dose level Low, time 3 day
# [2] = 1 mg/kg, 120 h, dose level Low, time 5 day
# [3] = 76 mg/kg, 72 h, dose level High, time 3 day
# [4] = 76 mg/kg, 120 h, dose level High, time 5 day
smiles,measurement,setting,value
C=CCN1CC[C@]23c4c5ccc(O)c4O[C@H]2C(=O)CC[C@@]3(O)[C@H]1C5 [NALOXONE],ABSOLUTE BASOPHIL,[1],0 CELLS/uL
same,ABSOLUTE EOSINOPHIL,[1],394 CELLS/uL
same,ABSOLUTE LYMPHOCYTE,[1],14212 CELLS/uL
same,ABSOLUTE MONOCYTE,[1],229.67 CELLS/uL
same,ABSOLUTE SEGMENTED NEUTROPHIL,[1],1597.67 CELLS/uL
same,BASOPHIL,[1],0%
same,EOSINOPHIL,[1],2.33%
same,ERYTHROCYTE COUNT,[1],5.29 x10E6/uL
same,HEMATOCRIT,[1],33.37%
same,HEMOGLOBIN,[1],12.43 G/DL
same,LEUKOCYTE COUNT,[1],16.43 x10E3/uL
same,LYMPHOCYTE,[1],86.33%
same,MEAN CORPUSCULAR HEMOGLOBIN,[1],23.5 pg
same,MEAN CORPUSCULAR HEMOGLOBIN CONCENTRATION,[1],37.23 G/DL
same,MEAN CORPUSCULAR VOLUME,[1],63.13 fL
same,MONOCYTE,[1],1.33%
same,NEUTROPHIL,[1],10%
same,NUCLEATED RED BLOOD CELLS,[1],0 /100WBC
same,PLATELET COUNT,[1],1087.33 x10E3/uL
same,ALANINE AMINOTRANSFERASE,[1],52 u/L
same,ALBUMIN,[1],4.2 G/DL
same,ALKALINE PHOSPHATASE,[1],368.67 u/L
same,ASPARTATE AMINOTRANSFERASE,[1],96 u/L
same,BLOOD UREA NITROGEN,[1],16.33 mg/dL
same,CARBON DIOXIDE,[1],26.67 mmol/L
same,CHLORIDE,[1],103.67 MEQ/L
same,CHOLESTEROL,[1],70.67 mg/dL
same,CREATINE PHOSPHOKINASE,[1],678.67 u/L
same,CREATININE,[1],0.2 mg/dL
same,GLUCOSE,[1],178.33 mg/dL
same,LACTATE DEHYDROGENASE,[1],116.67 u/L
same,LIPASE,[1],9.67 u/L
same,PHOSPHORUS,[1],12.63 mg/dL
same,POTASSIUM,[1],6.32 MEQ/L
same,SODIUM,[1],144.23 MEQ/L
same,TOTAL BILIRUBIN,[1],0.2 mg/dL
same,TOTAL PROTEIN,[1],5.9 G/DL
same,ABSOLUTE BASOPHIL,[2],0 CELLS/uL
same,ABSOLUTE EOSINOPHIL,[2],66.67 CELLS/uL
same,ABSOLUTE LYMPHOCYTE,[2],9301.33 CELLS/uL
same,ABSOLUTE MONOCYTE,[2],105.67 CELLS/uL
same,ABSOLUTE SEGMENTED NEUTROPHIL,[2],1026.33 CELLS/uL
same,BASOPHIL,[2],0%
same,EOSINOPHIL,[2],0.67%
same,ERYTHROCYTE COUNT,[2],5.74 x10E6/uL
same,HEMATOCRIT,[2],35.87%
same,HEMOGLOBIN,[2],13.53 G/DL
same,LEUKOCYTE COUNT,[2],10.5 x10E3/uL
same,LYMPHOCYTE,[2],88.67%
same,MEAN CORPUSCULAR HEMOGLOBIN,[2],23.57 pg
same,MEAN CORPUSCULAR HEMOGLOBIN CONCENTRATION,[2],37.73 G/DL
same,MEAN CORPUSCULAR VOLUME,[2],62.5 fL
same,MONOCYTE,[2],1%
same,NEUTROPHIL,[2],9.67%
same,NUCLEATED RED BLOOD CELLS,[2],0.33 /100WBC
same,PLATELET COUNT,[2],1255.33 x10E3/uL
same,ALANINE AMINOTRANSFERASE,[2],45.67 u/L
same,ALBUMIN,[2],4.1 G/DL
same,ALKALINE PHOSPHATASE,[2],363 u/L
same,ASPARTATE AMINOTRANSFERASE,[2],88.67 u/L
same,BLOOD UREA NITROGEN,[2],15.67 mg/dL
same,CARBON DIOXIDE,[2],25 mmol/L
same,CHLORIDE,[2],106 MEQ/L
same,CHOLESTEROL,[2],63.67 mg/dL
same,CREATINE PHOSPHOKINASE,[2],400.33 u/L
same,CREATININE,[2],0.18 mg/dL
same,GLUCOSE,[2],177.67 mg/dL
same,LACTATE DEHYDROGENASE,[2],358 u/L
same,LIPASE,[2],8.33 u/L
same,PHOSPHORUS,[2],12.67 mg/dL
same,POTASSIUM,[2],6.28 MEQ/L
same,SODIUM,[2],144.83 MEQ/L
same,TOTAL BILIRUBIN,[2],0.23 mg/dL
same,TOTAL PROTEIN,[2],6.2 G/DL
same,ABSOLUTE BASOPHIL,[3],0 CELLS/uL
same,ABSOLUTE EOSINOPHIL,[3],219 CELLS/uL
same,ABSOLUTE LYMPHOCYTE,[3],13357.67 CELLS/uL
same,ABSOLUTE MONOCYTE,[3],239.33 CELLS/uL
same,ABSOLUTE SEGMENTED NEUTROPHIL,[3],1117.33 CELLS/uL
same,BASOPHIL,[3],0%
same,EOSINOPHIL,[3],1.33%
same,ERYTHROCYTE COUNT,[3],5.83 x10E6/uL
same,HEMATOCRIT,[3],36.57%
same,HEMOGLOBIN,[3],14.13 G/DL
same,LEUKOCYTE COUNT,[3],14.93 x10E3/uL
same,LYMPHOCYTE,[3],89.67%
same,MEAN CORPUSCULAR HEMOGLOBIN,[3],24.23 pg
same,MEAN CORPUSCULAR HEMOGLOBIN CONCENTRATION,[3],38.67 G/DL
same,MEAN CORPUSCULAR VOLUME,[3],62.73 fL
same,MONOCYTE,[3],1.67%
same,NEUTROPHIL,[3],7.33%
same,NUCLEATED RED BLOOD CELLS,[3],0 /100WBC
same,PLATELET COUNT,[3],1424 x10E3/uL
same,ALANINE AMINOTRANSFERASE,[3],46.67 u/L
same,ALBUMIN,[3],4.23 G/DL
same,ALKALINE PHOSPHATASE,[3],304.67 u/L
same,ASPARTATE AMINOTRANSFERASE,[3],92.33 u/L
same,BLOOD UREA NITROGEN,[3],15.67 mg/dL
same,CARBON DIOXIDE,[3],24.33 mmol/L
same,CHLORIDE,[3],110.67 MEQ/L
same,CHOLESTEROL,[3],46 mg/dL
same,CREATINE PHOSPHOKINASE,[3],383.33 u/L
same,CREATININE,[3],0.12 mg/dL
same,GLUCOSE,[3],104 mg/dL
same,LACTATE DEHYDROGENASE,[3],123 u/L
same,LIPASE,[3],7.67 u/L
same,PHOSPHORUS,[3],14.33 mg/dL
same,POTASSIUM,[3],5.64 MEQ/L
same,SODIUM,[3],148.07 MEQ/L
same,TOTAL BILIRUBIN,[3],0.1 mg/dL
same,TOTAL PROTEIN,[3],6.3 G/DL
same,ABSOLUTE BASOPHIL,[4],0 CELLS/uL
same,ABSOLUTE EOSINOPHIL,[4],118.67 CELLS/uL
same,ABSOLUTE LYMPHOCYTE,[4],15030.67 CELLS/uL
same,ABSOLUTE MONOCYTE,[4],170.67 CELLS/uL
same,ABSOLUTE SEGMENTED NEUTROPHIL,[4],1746.67 CELLS/uL
same,BASOPHIL,[4],0%
same,EOSINOPHIL,[4],0.67%
same,ERYTHROCYTE COUNT,[4],5.72 x10E6/uL
same,HEMATOCRIT,[4],35.6%
same,HEMOGLOBIN,[4],13.43 G/DL
same,LEUKOCYTE COUNT,[4],17.07 x10E3/uL
same,LYMPHOCYTE,[4],88%
same,MEAN CORPUSCULAR HEMOGLOBIN,[4],23.53 pg
same,MEAN CORPUSCULAR HEMOGLOBIN CONCENTRATION,[4],37.77 G/DL
same,MEAN CORPUSCULAR VOLUME,[4],62.37 fL
same,MONOCYTE,[4],1%
same,NEUTROPHIL,[4],10.33%
same,NUCLEATED RED BLOOD CELLS,[4],0 /100WBC
same,PLATELET COUNT,[4],1344.67 x10E3/uL
same,ALANINE AMINOTRANSFERASE,[4],49.67 u/L
same,ALBUMIN,[4],4.07 G/DL
same,ALKALINE PHOSPHATASE,[4],305 u/L
same,ASPARTATE AMINOTRANSFERASE,[4],80.33 u/L
same,BLOOD UREA NITROGEN,[4],13.67 mg/dL
same,CARBON DIOXIDE,[4],26.33 mmol/L
same,CHLORIDE,[4],105 MEQ/L
same,CHOLESTEROL,[4],52.33 mg/dL
same,CREATINE PHOSPHOKINASE,[4],250.33 u/L
same,CREATININE,[4],0.19 mg/dL
same,GLUCOSE,[4],172.67 mg/dL
same,LACTATE DEHYDROGENASE,[4],79 u/L
same,LIPASE,[4],8 u/L
same,PHOSPHORUS,[4],12.5 mg/dL
same,POTASSIUM,[4],6.34 MEQ/L
same,SODIUM,[4],144.67 MEQ/L
same,TOTAL BILIRUBIN,[4],0.13 mg/dL
same,TOTAL PROTEIN,[4],6.03 G/DL
